Experimental data published in the OligoGym collection.
HELM strings list units from the 5' end as sugar, base in round brackets, then linkage (d deoxyribose, r ribose, m 2'-O-methyl, p phosphodiester). Strings are as the collection lists them; they lack the last nucleoside at the 3' end of the tested compound. [moe] = 2'-O-(2-methoxyethyl) (MOE); [sp] = phosphorothioate linkage; [m5C] = 5-methylcytosine

Molecular target: ATXN2
Assay: mouse, dose not given
Settings: ASO

| Substance | 3 h FOB score |
| --- | --- |
| RNA1{[moe](G)[sp].[moe](A)p.[moe](A)p.[moe]([m5C])p.[moe]([m5C])p.d(A)[sp].d(G)[sp].d(A)[sp].d(A)[sp].d(T)[sp].d(T)[sp].d([m5C])[sp].d(G)[sp].d(G)[sp].d(G)[sp].[moe](T)p.[moe](T)p.[moe](G)[sp].[moe](A)}$$$$ (last 3' nucleoside missing) | 3.75 score 0-7 |
| RNA1{[moe](G)[sp].[moe](A)p.[moe](G)p.[moe](T)p.[moe](T)p.d(T)[sp].d(T)[sp].d(T)[sp].d(G)[sp].d([m5C])[sp].d([m5C])[sp].d(T)[sp].d(T)[sp].d([m5C])[sp].d([m5C])[sp].[moe](A)p.[moe](T)p.[moe](T)[sp].[moe](T)}$$$$ (last 3' nucleoside missing) | 1 score 0-7 |
| RNA1{[moe](G)[sp].[moe](A)p.[moe](G)p.[moe](T)p.[moe](T)p.d([m5C])[sp].d(A)[sp].d([m5C])[sp].d([m5C])[sp].d(T)[sp].d(G)[sp].d([m5C])[sp].d(A)[sp].d(T)[sp].d([m5C])[sp].[moe]([m5C])p.[moe]([m5C])p.[moe](A)[sp].[moe](G)}$$$$ (last 3' nucleoside missing) | 6 score 0-7 |
| RNA1{[moe](G)[sp].[moe](A)p.[moe](T)p.[moe](A)p.[moe](T)p.d(G)[sp].d(T)[sp].d(T)[sp].d(A)[sp].d([m5C])[sp].d(A)[sp].d(A)[sp].d(A)[sp].d(T)[sp].d(T)[sp].[moe]([m5C])p.[moe](T)p.[moe]([m5C])[sp].[moe](T)}$$$$ (last 3' nucleoside missing) | 0 score 0-7 |
| RNA1{[moe](G)[sp].[moe](A)p.[moe](T)p.[moe](G)p.[moe](T)p.d(T)[sp].d(T)[sp].d([m5C])[sp].d(A)[sp].d(T)[sp].d(T)[sp].d(G)[sp].d(G)[sp].d(G)[sp].d(T)[sp].[moe](T)p.[moe](T)p.[moe](A)[sp].[moe](A)}$$$$ (last 3' nucleoside missing) | 6.25 score 0-7 |
| RNA1{[moe](G)[sp].[moe](A)p.[moe](T)p.[moe](T)p.[moe](A)p.d(A)[sp].d([m5C])[sp].d(G)[sp].d(G)[sp].d(T)[sp].d(T)[sp].d(G)[sp].d([m5C])[sp].d(T)[sp].d(T)[sp].[moe](A)p.[moe](G)p.[moe](G)[sp].[moe](G)}$$$$ (last 3' nucleoside missing) | 6.5 score 0-7 |
| RNA1{[moe](G)[sp].[moe](A)p.[moe](T)p.[moe](T)p.[moe]([m5C])[sp].d(T)[sp].d(G)[sp].d(T)[sp].d(A)[sp].d([m5C])[sp].d(T)[sp].d(T)[sp].d(T)[sp].[moe](T)p.[moe]([m5C])p.[moe](T)[sp].[moe]([m5C])}$$$$ (last 3' nucleoside missing) | 1 score 0-7 |
| RNA1{[moe](G)[sp].[moe](A)p.[moe](T)p.[moe](T)p.[moe]([m5C])p.d(T)[sp].d(G)[sp].d(T)[sp].d(A)[sp].d([m5C])[sp].d(T)[sp].d(T)[sp].d(T)[sp].d(T)[sp].d([m5C])[sp].[moe](T)p.[moe]([m5C])p.[moe](A)[sp].[moe](T)}$$$$ (last 3' nucleoside missing) | 4.5 score 0-7 |
| RNA1{[moe](G)[sp].[moe](A)p.[moe]([m5C])p.[moe](A)p.[moe](T)p.d(G)[sp].d([m5C])[sp].d(G)[sp].d(G)[sp].d(T)[sp].d(T)[sp].d(T)[sp].d([m5C])[sp].d(A)[sp].d([m5C])[sp].[moe]([m5C])p.[moe](A)p.[moe](T)[sp].[moe](T)}$$$$ (last 3' nucleoside missing) | 4 score 0-7 |
| RNA1{[moe](G)[sp].[moe](G)[sp].[moe](A)[sp].[moe](G)[sp].[moe]([m5C])[sp].d(T)[sp].d(G)[sp].d(G)[sp].d(A)[sp].d(G)[sp].d(A)[sp].d(A)[sp].d([m5C])[sp].d([m5C])[sp].d(A)[sp].[moe](T)[sp].[moe](G)[sp].[moe](A)[sp].[moe](G)}$$$$ (last 3' nucleoside missing) | 7 score 0-7 |
| RNA1{[moe](G)[sp].[moe](G)p.[moe](A)p.[moe](A)p.[moe](T)p.d([m5C])[sp].d(T)[sp].d(T)[sp].d(A)[sp].d(T)[sp].d(T)[sp].d(A)[sp].d(A)[sp].d(G)[sp].d([m5C])[sp].[moe](A)p.[moe](A)p.[moe](G)[sp].[moe](T)}$$$$ (last 3' nucleoside missing) | 4.5 score 0-7 |
| RNA1{[moe](G)[sp].[moe](G)p.[moe](A)p.[moe](T)p.[moe](A)p.d([m5C])[sp].d(A)[sp].d(A)[sp].d(A)[sp].d(T)[sp].d(T)[sp].d([m5C])[sp].d(T)[sp].d(A)[sp].d(G)[sp].[moe](G)p.[moe]([m5C])p.[moe]([m5C])[sp].[moe](A)}$$$$ (last 3' nucleoside missing) | 4 score 0-7 |
| RNA1{[moe](G)[sp].[moe](G)p.[moe](A)p.[moe](T)p.[moe](T)[sp].d([m5C])[sp].d(T)[sp].d(G)[sp].d(T)[sp].d(A)[sp].d([m5C])[sp].d(T)[sp].d(T)[sp].[moe](T)p.[moe](T)p.[moe]([m5C])[sp].[moe](T)}$$$$ (last 3' nucleoside missing) | 2.5 score 0-7 |
| RNA1{[moe](G)[sp].[moe](G)p.[moe](A)p.[moe](T)p.[moe](T)p.d(G)[sp].d(T)[sp].d(T)[sp].d(T)[sp].d(T)[sp].d([m5C])[sp].d(T)[sp].d(T)[sp].d([m5C])[sp].d(A)[sp].[moe](T)p.[moe](T)p.[moe](A)[sp].[moe](T)}$$$$ (last 3' nucleoside missing) | 0 score 0-7 |
| RNA1{[moe](G)[sp].[moe](G)p.[moe](A)p.[moe](T)p.[moe](T)p.d([m5C])[sp].d(T)[sp].d(G)[sp].d(T)[sp].d(A)[sp].d([m5C])[sp].d(T)[sp].d(T)[sp].d(T)[sp].d(T)[sp].[moe]([m5C])p.[moe](T)p.[moe]([m5C])[sp].[moe](A)}$$$$ (last 3' nucleoside missing) | 1 score 0-7 |
| RNA1{[moe](G)[sp].[moe](G)p.[moe](A)p.[moe]([m5C])p.[moe](A)p.d(A)[sp].d(G)[sp].d(A)[sp].d(A)[sp].d(A)[sp].d(T)[sp].d(T)[sp].d(T)[sp].d(T)[sp].d([m5C])[sp].[moe](A)p.[moe](G)p.[moe](T)[sp].[moe](T)}$$$$ (last 3' nucleoside missing) | 4.5 score 0-7 |
| RNA1{[moe](G)[sp].[moe](G)p.[moe](T)p.[moe](A)p.[moe](A)p.d([m5C])[sp].d(A)[sp].d(G)[sp].d([m5C])[sp].d(T)[sp].d([m5C])[sp].d(T)[sp].d(G)[sp].d(T)[sp].d(T)[sp].[moe]([m5C])p.[moe](G)p.[moe](A)[sp].[moe](T)}$$$$ (last 3' nucleoside missing) | 7 score 0-7 |
| RNA1{[moe](G)[sp].[moe](G)p.[moe](T)p.[moe](A)p.[moe]([m5C])p.d(A)[sp].d([m5C])[sp].d(A)[sp].d(G)[sp].d(T)[sp].d(T)[sp].d(T)[sp].d([m5C])[sp].d(A)[sp].d([m5C])[sp].[moe](T)p.[moe](A)p.[moe](G)[sp].[moe](G)}$$$$ (last 3' nucleoside missing) | 4.75 score 0-7 |
| RNA1{[moe](G)[sp].[moe](G)p.[moe](T)p.[moe](G)p.[moe](A)p.d(T)[sp].d(G)[sp].d(T)[sp].d(T)[sp].d(T)[sp].d([m5C])[sp].d(A)[sp].d(T)[sp].d(T)[sp].d(G)[sp].[moe](G)p.[moe](G)p.[moe](T)[sp].[moe](T)}$$$$ (last 3' nucleoside missing) | 4.5 score 0-7 |
| RNA1{[moe](G)[sp].[moe](G)p.[moe](T)p.[moe](G)p.[moe](G)[sp].d(T)[sp].d(G)[sp].d(T)[sp].d(G)[sp].d([m5C])[sp].d(G)[sp].d([m5C])[sp].d(A)[sp].[moe](T)p.[moe](G)p.[moe](T)[sp].[moe](A)}$$$$ (last 3' nucleoside missing) | 7 score 0-7 |
| RNA1{[moe](G)[sp].[moe](G)p.[moe](T)p.[moe](G)p.[moe](G)p.d(T)[sp].d(G)[sp].d(T)[sp].d(G)[sp].d([m5C])[sp].d(G)[sp].d([m5C])[sp].d(A)[sp].d(T)[sp].d(G)[sp].[moe](T)p.[moe](A)p.[moe](G)[sp].[moe](A)}$$$$ (last 3' nucleoside missing) | 7 score 0-7 |
| RNA1{[moe](G)[sp].[moe](G)p.[moe](T)p.[moe]([m5C])p.[moe](A)p.d(A)[sp].d(G)[sp].d(G)[sp].d(T)[sp].d([m5C])[sp].d(A)[sp].d(A)[sp].d(T)[sp].d(A)[sp].d([m5C])[sp].[moe](T)p.[moe](T)p.[moe](T)[sp].[moe](T)}$$$$ (last 3' nucleoside missing) | 2 score 0-7 |
| RNA1{[moe](G)[sp].[moe](G)p.[moe]([m5C])p.[moe](T)p.[moe](G)p.d(G)[sp].d(A)[sp].d(A)[sp].d(G)[sp].d(T)[sp].d([m5C])[sp].d(T)[sp].d(G)[sp].d(A)[sp].d(A)[sp].[moe]([m5C])p.[moe]([m5C])p.[moe]([m5C])[sp].[moe]([m5C])}$$$$ (last 3' nucleoside missing) | 6 score 0-7 |
| RNA1{[moe](G)[sp].[moe](T)[sp].[moe](G)[sp].[moe](G)[sp].[moe](G)[sp].d(A)[sp].d(T)[sp].d(A)[sp].d([m5C])[sp].d(A)[sp].d(A)[sp].d(A)[sp].d(T)[sp].d(T)[sp].d([m5C])[sp].[moe](T)[sp].[moe](A)[sp].[moe](G)[sp].[moe](G)}$$$$ (last 3' nucleoside missing) | 7 score 0-7 |
| RNA1{[moe](G)[sp].[moe](T)p.[moe](A)p.[moe](A)p.[moe]([m5C])p.d(A)[sp].d(A)[sp].d(T)[sp].d(T)[sp].d(G)[sp].d(T)[sp].d(A)[sp].d(A)[sp].d(A)[sp].d(T)[sp].[moe]([m5C])p.[moe]([m5C])p.[moe](A)[sp].[moe](T)}$$$$ (last 3' nucleoside missing) | 0.75 score 0-7 |
| RNA1{[moe](G)[sp].[moe](T)p.[moe](A)p.[moe](G)p.[moe](T)p.d(G)[sp].d(T)[sp].d(T)[sp].d(T)[sp].d(G)[sp].d(G)[sp].d(G)[sp].d(A)[sp].d(T)[sp].d(G)[sp].[moe]([m5C])p.[moe](T)p.[moe](T)[sp].[moe]([m5C])}$$$$ (last 3' nucleoside missing) | 6 score 0-7 |
| RNA1{[moe](G)[sp].[moe](T)p.[moe](A)p.[moe](T)p.[moe](G)[sp].d(T)[sp].d(T)[sp].d(T)[sp].d(G)[sp].d(T)[sp].d([m5C])[sp].d(T)[sp].d(G)[sp].[moe](T)p.[moe]([m5C])p.[moe](T)[sp].[moe](T)}$$$$ (last 3' nucleoside missing) | 6.5 score 0-7 |
